Data published in ChEMBL document CHEMBL4411307, “N,N'-diaryl-bishydrazones in a biphenyl platform: Broad spectrum antifungal agents” (Eur J Med Chem, 2019).
In brackets after ≈: the same amount, converted by molar mass. Activity calls are given as the source filed them. The calls are words filed in the database; no cut-off is given here.

Columns and labels:
[1] = Hemolytic activity in mouse RBC at 62.5 ug/ml after 1 hr relative to control; type: ADME, cell-based, Erythrocyte; conditions: red blood cells (erythrocytes), read-out: Activity
[2] = Hemolytic activity in mouse RBC at […] after 1 hr relative to control; type: ADME, cell-based, Erythrocyte; conditions: red blood cells (erythrocytes), read-out: Activity; further: tested at 0.48 µg/mL
[3] = tested on: Candida albicans; test: Antifungal activity against fluconazole/ITC-resistant Candida albicans ATCC 90819 measured after 48 hrs by CLSI M27-A3 protocol based method; type: functional; conditions: ATCC 90819, 48 h
[4] = tested on: Pichia kudriavzevii; test: Antifungal activity against Candida krusei ATCC 6258 measured after 48 hrs by CLSI M27-A3 protocol based method; type: functional; conditions: ATCC 6258, 48 h
[5] = tested on: Aspergillus terreus; test: Antifungal activity against Aspergillus terreus ATCC MYA-3633 measured after 48 hrs by CLSI M38-A2 protocol based method; type: functional; conditions: ATCC MYA-3633, 48 h
[6] = tested on: BEAS-2B; test: Cytotoxicity against human BEAS2B cells after 24 hrs by resazurin based assay; type: cell-based
[7] = tested on: Candida albicans; test: Antifungal activity against fluconazole/ITC-susceptible Candida albicans ATCC MYA-2876 measured after 48 hrs by CLSI M27-A3 protocol based method; type: functional; conditions: ATCC MYA-2876, 48 h
[8] = tested on: Candida parapsilosis; test: Antifungal activity against Candida parapsilosis ATCC 22019 measured after 48 hrs by CLSI M27-A3 protocol based method; type: functional; conditions: Lodderomyces parapsilosis, ATCC 22019, 48 h
[9] = tested on: Candida albicans; test: Antifungal activity against fluconazole/ITC-resistant Candida albicans ATCC 10231 measured after 48 hrs by CLSI M27-A3 protocol based method; type: functional; conditions: ATCC 10231, 48 h
[10] = tested on: Nakaseomyces glabratus; test: Antifungal activity against Candida glabrata ATCC 2001 measured after 48 hrs by CLSI M27-A3 protocol based method; type: functional; conditions: CBS 138, 48 h
[11] = tested on: Candida albicans; test: Antifungal activity against fluconazole/ITC-resistant Candida albicans ATCC 64124 measured after 48 hrs by CLSI M27-A3 protocol based method; type: functional; conditions: ATCC 64124, 48 h
[12] = tested on: Candida albicans; test: Antifungal activity against fluconazole/ITC-resistant Candida albicans ATCC MYA-1003 measured after 48 hrs by CLSI M27-A3 protocol based method; type: functional; conditions: ATCC MYA-1003, 48 h
[13] = Hemolytic activity in mouse RBC at 31.3 ug/ml after 1 hr relative to control; type: ADME, cell-based, Erythrocyte; conditions: red blood cells (erythrocytes), read-out: Activity
[14] = Hemolytic activity in mouse RBC at 1.95 ug/ml after 1 hr relative to control; type: ADME, cell-based, Erythrocyte; conditions: red blood cells (erythrocytes), read-out: Activity
[15] = tested on: Aspergillus nidulans; test: Antifungal activity against Aspergillus nidulans ATCC 38163 measured after 48 hrs by CLSI M38-A2 protocol based method; type: functional; conditions: ATCC 38163, 48 h
[16] = Hemolytic activity in mouse RBC at 3.9 ug/ml after 1 hr relative to control; type: ADME, cell-based, Erythrocyte; conditions: red blood cells (erythrocytes), read-out: Activity
[17] = tested on: Candida albicans; test: Antifungal activity against fluconazole/ITC-resistant Candida albicans ATCC MYA-1237 measured after 48 hrs by CLSI M27-A3 protocol based method; type: functional; conditions: ATCC MYA-1237, 48 h
[18] = tested on: A549; test: Cytotoxicity against human A549 cells after 24 hrs by resazurin based assay; type: cell-based; conditions: a549, 24 h
[19] = Hemolytic activity in mouse RBC at 7.8 ug/ml after 1 hr relative to control; type: ADME, cell-based, Erythrocyte; conditions: red blood cells (erythrocytes), read-out: Activity
[20] = Hemolytic activity in mouse RBC at […] ug/ml after 1 hr relative to control; type: ADME, cell-based, Erythrocyte; conditions: red blood cells (erythrocytes), read-out: Activity
[21] = tested on: Aspergillus flavus; test: Antifungal activity against Aspergillus flavus ATCC MYA-3631 measured after 48 hrs by CLSI M38-A2 protocol based method; type: functional; conditions: ATCC MYA-3631, 48 h
[22] = tested on: Candida albicans; test: Antifungal activity against fluconazole/ITC-susceptible Candida albicans ATCC MYA-2310 measured after 48 hrs by CLSI M27-A3 protocol based method; type: functional; conditions: ATCC MYA-2310, 48 h
[23] = tested on: Staphylococcus aureus; test: Antibacterial activity against methicillin-resistant Staphylococcus aureus; type: functional, organism-based
[24] = tested on: Enterococcus; test: Antibacterial activity against vancomycin-resistant Enterococcus; type: functional, organism-based
[25] = tested on: Listeria monocytogenes; test: Antibacterial activity against Listeria monocytogenes; type: functional, organism-based

Row | SMILES | MIC [3] [µg/mL] | MIC [4] [µg/mL] | MIC [5] [µg/mL] | MIC [7] [µg/mL] | MIC [8] [µg/mL] | MIC [9] [µg/mL] | MIC [10] [µg/mL] | MIC [11] [µg/mL] | MIC [12] [µg/mL] | MIC [15] [µg/mL] | MIC [17] [µg/mL] | MIC [21] [µg/mL] | MIC [22] [µg/mL] | Activity [23] | Activity [24] | Activity [25] | other results
1 | N=C(N)N/N=C/c1ccc(-c2cccc(/C=N/NC(=N)N)c2)cc1 | > 31.3 | 1.95 (≈ 6.05 µM) | 7.8 (≈ 24.2 µM) | 3.9 (≈ 12.1 µM) | 1.95 (≈ 6.05 µM) | 1.95 to 3.9 (≈ 6.05 to 12.1 µM) | 3.9 (≈ 12.1 µM) | 3.9 (≈ 12.1 µM) | > 31.3 | 7.8 (≈ 24.2 µM) | 7.8 (≈ 24.2 µM) | > 31.3 | 3.9 (≈ 12.1 µM) |  |  |  | hemolysis at 1 h, 62.5 ug/ml [1]: 13.1%; hemolysis at 1 h, […] [2]: 0%; CC50 [6]: 2.9 µg/mL (≈ 9 µM); hemolysis at 1 h, 31.3 ug/ml [13]: 3.8%; hemolysis at 1 h, 1.95 ug/ml [14]: 1.1%; hemolysis at 1 h, 3.9 ug/ml [16]: 1.2%; CC50 [18]: 5.3 µg/mL (≈ 16.4 µM); hemolysis at 1 h, 7.8 ug/ml [19]: 2.3%; hemolysis at 1 h, 15.6 ug/ml ([20]; at 15.6 µg/mL): 3.8%; hemolysis at 1 h, 0.975 ug/ml [20]: 0%
2 | Brc1ccc(N/N=C/c2ccc(-c3cccc(/C=N/Nc4ccc(Br)cc4)c3)cc2)cc1 | > 31.3 | > 31.3 | > 31.3 | 31.3 (≈ 57.1 µM) | > 31.3 | 31.3 (≈ 57.1 µM) | 7.8 (≈ 14.2 µM) | 31.3 (≈ 57.1 µM) | 31.3 (≈ 57.1 µM) | > 31.3 | 7.8 (≈ 14.2 µM) | 31.3 (≈ 57.1 µM) | > 31.3 | inactive | inactive | inactive | 
3 | Fc1cc(F)cc(N/N=C/c2ccc(-c3cccc(/C=N/Nc4cc(F)cc(F)c4)c3)cc2)c1 | > 31.3 | > 31.3 | > 31.3 | 31.3 (≈ 67.7 µM) | > 31.3 | 3.9 (≈ 8.43 µM) | > 31.3 | 15.6 (≈ 33.7 µM) | 31.3 (≈ 67.7 µM) | > 31.3 | 31.3 (≈ 67.7 µM) | > 31.3 | > 31.3 | inactive | inactive | inactive | 
